Laboratory results taken from patent US12576030B2, “Compositions for delivery of codon-optimized mRNA” (Translate Bio, Inc., priority 2020, dated 2026).
“Also recorded” adds a separate entry of the source.

Test system: male CD1 mice
Test: Luciferase radiance in lung after pulmonary delivery of FFL mRNA-LNPs
Format: in vivo
Conditions: for potency as determined by the average radiance detected in mouse lungs: FFL mRNA-LNP, single intratracheal administration via nebulization, about 5 hours post-dose
Method: About 150 cationic lipids were tested. (FIG. 7). Each cationic lipid was used in preparing lipid nanoparticles encapsulating mRNA encoding firefly luciferase protein (FFL mRNA) according to methods known in the art. For example, suitable methods for mRNA encapsulation include methods described in International Publication Nos. WO2016/004318 and WO 2018/089801, which is hereby incorporated by reference in its entirety. The tested lipid nanoparticles comprised a lipid component consisting of a cationic lipid, a non-cationic lipid (DOPE), a PEG-modified lipid (DMG-PEG2K), and optionally cholesterol.
Lipid nanoparticle formulations comprising FFL mRNA were administered to male CD1 mice by a single intratracheal administration via nebulization using a Microsprayer®. At approximately 5 hours post-dose, the animals were dosed with luciferin by intraperitoneal injection and all animals were imaged using an IVIS imaging system to measure luciferase production in the lung. […] Some cationic lipids remarkably had greater than 50-fold increase in pulmonary protein expression as compared to other cationic lipids.

Structure (SMILES)	potency as determined by the average radiance detected in mouse lungs	potency as determined by the average radiance detected in mouse lungs (listed as REP-E3-E10)	historical radiance/expression of pulmonary-delivered FFL mRNA in LNP (LNP comprising the named cationic lipid, pulmonary-delivered (e.g., nebulized))
CCCCCCCCC(O)CN(CCCC(=O)OCCN1CC(C)N(CCOC(=O)CCCN(CC(O)CCCCCCCC)CC(O)CCCCCCCC)CC1C)CC(O)CCCCCCCC (centres unmarked) [HEP-E3-E10]	performed particularly well	particularly high potency	
CCCCCCCCCCCCCCOC(=O)CC(CC(=O)OCCCCCCCCCCCCCC)(OC(=O)CCN(C)C)C(=O)OCCCCCCCCCCCCCC [TL1-04D-DMA]	performed particularly well; also recorded: particularly high potency		
CC(C)CCCC(C)C1CCC2C3CC=C4CC(OC(=O)CCc5cnc[nH]5)CCC4(C)C3CCC12C (centres unmarked) [ICE, imidazole cholesterol ester, reference compound]			around 10^4 p/s/cm^2sr
CCCCC/C=C\C/C=C\CCCCCCCC(=O)OCC(COC(=O)CCCCCCC/C=C\C/C=C\CCCCC)(COC(=O)CCCCCCC/C=C\C/C=C\CCCCC)NCCS(=O)(=O)NCCCN(C)C [GL-TES-SA-DMP-E18-2]	performed particularly well; also recorded: particularly high potency		
CCCCCCCCC(O)CN(CCCCC(=O)OCCN1CC(C)N(CCOC(=O)CCCCN(CC(O)CCCCCCCC)CC(O)CCCCCCCC)CC1C)CC(O)CCCCCCCC (centres unmarked) [HEP-E4-E10]	performed particularly well; also recorded: particularly high potency		
CCCCC/C=C\C/C=C\CCCCCCCC(=O)OCC(COC(=O)CCCCCCC/C=C\C/C=C\CCCCC)(COC(=O)CCCCCCC/C=C\C/C=C\CCCCC)NCCS(=O)(=O)NCCN(C)C [GL-TES-SA-DME-E18-2, 2-((2-(N-(2-(dimethylamino)ethyl)sulfamoyl)ethyl)amino)-2-((((9Z,12Z)-octadeca-9,12-dienoyl)oxy)methyl)propane-1,3-diyl (9Z,9′Z,12Z,12′Z)-bis(octadeca-9,12-dienoate)]	performed particularly well; also recorded: particularly high potency		
CCCCCCCCOC(=O)CC(CC(=O)OCCCCCCCC)(OC(=O)CCN(C)C)C(=O)OCCCCCCCC [TL1-01D-DMA, trioctyl 2-((3-(dimethylamino)propanoyl)oxy)propane-1,2,3-tricarboxylate]	performed particularly well; also recorded: particularly high potency		
